Values after ≈ are worked out from the molar mass of the structure shown. Like-named read-outs stand apart in the source and are kept apart here. Non-standard residues stand in square brackets, D forms with d. Residues, ends and D or L forms follow the SMILES beside them. ξ: configuration not given here. ξTrp(5-OMe) = COc1ccc2[nH]cc(CC(N)C(=O)O)c2c1; ξTrp(6-F) = NC(Cc1c[nH]c2cc(F)ccc12)C(=O)O; ξTrp(7-aza) = NC(Cc1c[nH]c2ncccc12)C(=O)O
Legend:
[1] = test system: Klebsiella pneumoniae (NCTC 13440); format: cell-based; conditions: NCTC 13440, 3 h, pH 7.4
Source text: (§1) The bacterial strains for the antimicrobial assay were obtained from the ATCC (American Type Culture Collection, Manassas, VA, USA) and NCTC (National Collection of Type Cultures, Salisbury, UK). Gram-negative strains were Pseudomonas aeruginosa (ATCC 27853), Escherichia coli (ATCC 8739, ATCC 35218, and ATCC 25922), Salmonella enterica (ATCC 13076), Klebsiella pneumoniae (NCTC 13440), Acinetobacter baumannii (ATCC 17978) and the Gram-positive strains were Enterococcus faecalis (ATCC 29212), Listeria monocytogenes (ATCC 19111), and Staphylococcus aureus (HNCMO112011 and ATCC 25923).
(§2) Determination of antibacterial activity for the peptides was carried out by utilizing a minimum bactericidal concentration (MBC) bioassay. Synthesized peptides were dissolved in sterile water and used from 25 to 0.125 μM in 2-fold dilution series and incubated with ~10^7 log phase bacteria in Potassium-Phosphate Buffer (PPB, pH: 7.4) for three hours as described earlier. After that, 5 μl of each sample was placed on LB agar and the growth of bacteria was monitored after overnight incubation at 37 °C. The lowest concentration of the antimicrobial agents that completely eliminated viable bacteria was considered the minimal bactericidal concentration (MBC).

[2] = test system: Salmonella enterica (ATCC 13076); format: cell-based; conditions: ATCC 13076, 3 h, pH 7.4
Source text: as §1, §2

[3] = test system: Listeria monocytogenes (ATCC 19111); format: cell-based
Source text: as §1, §2

[4] = test system: Pseudomonas aeruginosa (ATCC 27853); format: cell-based
Source text: as §1, §2

[5] = test system: Staphylococcus aureus (HNCMO112011); format: cell-based; conditions: HNCMO112011, 3 h, pH 7.4
Source text: as §1, §2

[6] = test system: Enterococcus faecalis (ATCC 29212); format: cell-based
Source text: as §1, §2

[7] = test system: Acinetobacter baumannii (ATCC 17978); format: cell-based; conditions: ATCC 17978, 3 h, pH 7.4
Source text: as §1, §2

[8] = test system: tested bacteria (ESKAPE pathogens, Listeria monocytogenes, Salmonella enterica); format: cell-based; conditions: 3 h, pH 7.4
Source text: as §1, §2

[9] = test system: Escherichia coli (ATCC 8739); format: cell-based; conditions: ATCC 8739, 3 h, pH 7.4
Source text: as §1, §2

S. aureus (ATCC 25923) = format: cell-based, Staphylococcus aureus; conditions: ATCC 25923, 3 h, pH 7.4
Source text: as §1, §2

E. coli (ATCC 35218) = format: cell-based, Escherichia coli; conditions: ATCC 35218, 3 h, pH 7.4
Source text: as §1, §2

E. coli (ATCC 25922) = format: cell-based, Escherichia coli; conditions: ATCC 25922, 3 h, pH 7.4
Source text: as §1, §2

Row | Compound | Minimal bactericidal concentration (MBC) K. p. [1] [µM] | Minimal bactericidal concentration (MBC) S. e. [2] [µM] | Minimal bactericidal concentration (MBC) L. m. ([3]; ATCC 19111, 3 h, pH 7.4) [µM] | Minimal bactericidal concentration (MBC) P. a. ([4]; Pseudomonas aeruginosa ATCC 27853, ~10^7 log phase bacteria, 3 h in PPB pH 7.4, peptide 25 to 0.125 μM 2-fold series, plated on LB agar, overnight 37 °C) [µM] | Minimal bactericidal concentration (MBC) S. a. [5] [µM] | Minimal bactericidal concentration (MBC) E. f. ([6]; ATCC 29212, 3 h, pH 7.4) [µM] | Minimal bactericidal concentration (MBC) A. b. [7] [µM] | MBC against most or all of the tested bacteria [8] [µM] | Minimal bactericidal concentration (MBC) E. c. [9] [µM] | MBC S.a. ATTC 25923 (S. aureus (ATCC 25923)) [µM] | Minimal bactericidal concentration (MBC) P. a. ([4]; ATCC 27853, 3 h, pH 7.4) [µM] | MBC E.c. ATTC 35218 (E. coli (ATCC 35218)) [µM] | MBC E.c. ATTC 25922 (E. coli (ATCC 25922)) [µM] | Minimal bactericidal concentration (MBC) L. m. ([3]; Listeria monocytogenes ATCC 19111, ~10^7 log phase bacteria, 3 h in PPB pH 7.4, peptide 25 to 0.125 μM 2-fold series, plated on LB agar, overnight 37 °C) [µM] | Minimal bactericidal concentration (MBC) E. f. ([6]; Enterococcus faecalis ATCC 29212, ~10^7 log phase bacteria, 3 h in potassium-phosphate buffer (PPB) pH 7.4, peptide 25 to 0.125 μM 2-fold series, 5 μl on LB agar, overnight 37 °C) [µM]
1 | CC[C@H](C)[C@H](NC(=O)[C@H](CCCCN)NC(=O)[C@H](Cc1ccccc1)NC(=O)[C@H](CC(C)C)NC(=O)[C@@H]1CCCN1C(=O)[C@H](CCCCN)NC(=O)[C@H](CCCCN)NC(=O)[C@H](CO)NC(=O)[C@@H](N)CCCCN)C(=O)NC(Cc1c[nH]c2ccc(OC)cc12)C(=O)N[C@@H](CCCCN)C(=O)N[C@@H](CO)C(=O)N[C@H](C(=O)N[C@@H](CCC(=O)O)C(=O)N[C@@H](CC(N)=O)C(=O)N[C@H](C(=O)N[C@@H](CO)C(=O)N[C@H](C(=O)N[C@@H](CC(C)C)C(=O)N[C@@H](Cc1c[nH]c2ccccc12)C(=O)N[C@@H](Cc1ccc(O)cc1)C(=O)N[C@@H](CCCCN)C(N)=O)C(C)C)C(C)C)C(C)C (stereo partly drawn) [NCR169C17–38C12,17/S-10W^5-MeO II] (H-KSKKPLFKI[ξTrp(5-OMe)]KSVENVSVLWYK-NH2; N-terminus assumed) | 3.1 (≈ 8.49 µg/mL) | 3.1 (≈ 8.49 µg/mL) | 3.1 (≈ 8.49 µg/mL) | 25 (≈ 68.4 µg/mL) | 3.1 (≈ 8.49 µg/mL) | 3.1 (≈ 8.49 µg/mL) | 3.1 (≈ 8.49 µg/mL) | 3.1 | 3.1 (≈ 8.49 µg/mL) | – | – | – | – | – | –
2 | CC[C@H](C)[C@H](NC(=O)[C@H](CCCCN)NC(=O)[C@H](Cc1ccccc1)NC(=O)[C@H](CC(C)C)NC(=O)[C@@H]1CCCN1C(=O)[C@H](CCCCN)NC(=O)[C@H](CCCCN)NC(=O)[C@H](CO)NC(=O)[C@@H](N)CCCCN)C(=O)NC(Cc1c[nH]c2cc(F)ccc12)C(=O)N[C@@H](CCCCN)C(=O)N[C@@H](CO)C(=O)N[C@H](C(=O)N[C@@H](CCC(=O)O)C(=O)N[C@@H](CC(N)=O)C(=O)N[C@H](C(=O)N[C@@H](CO)C(=O)N[C@H](C(=O)N[C@@H](CC(C)C)C(=O)N[C@@H](Cc1c[nH]c2ccccc12)C(=O)N[C@@H](Cc1ccc(O)cc1)C(=O)N[C@@H](CCCCN)C(N)=O)C(C)C)C(C)C)C(C)C (stereo partly drawn) [NCR169C17–38C12,17/S-10W^6-F I] (H-KSKKPLFKI[ξTrp(6-F)]KSVENVSVLWYK-NH2; N-terminus assumed) | 1.6 (≈ 4.36 µg/mL) | 1.6 (≈ 4.36 µg/mL) | 1.6 (≈ 4.36 µg/mL) | – | 0.8 (≈ 2.18 µg/mL) | 1.6 (≈ 4.36 µg/mL) | 1.6 (≈ 4.36 µg/mL) | 0.8 to 1.6 | 0.8 (≈ 2.18 µg/mL) | 1.6 (≈ 4.36 µg/mL) | 0.8 (≈ 2.18 µg/mL) | 0.8 (≈ 2.18 µg/mL) | 0.8 (≈ 2.18 µg/mL) | – | –
3 | CC[C@H](C)[C@H](NC(=O)[C@H](CCCCN)NC(=O)[C@H](Cc1ccccc1)NC(=O)[C@H](CC(C)C)NC(=O)[C@@H]1CCCN1C(=O)[C@H](CCCCN)NC(=O)[C@H](CCCCN)NC(=O)[C@H](CO)NC(=O)[C@@H](N)CCCCN)C(=O)N[C@@H](Cc1c[nH]c2ccccc12)C(=O)N[C@@H](CCCCN)C(=O)N[C@@H](CO)C(=O)N[C@H](C(=O)N[C@@H](CCC(=O)O)C(=O)N[C@@H](CC(N)=O)C(=O)N[C@H](C(=O)N[C@@H](CO)C(=O)N[C@H](C(=O)N[C@@H](CC(C)C)C(=O)NC(Cc1c[nH]c2ncccc12)C(=O)N[C@@H](Cc1ccc(O)cc1)C(=O)N[C@@H](CCCCN)C(N)=O)C(C)C)C(C)C)C(C)C (stereo partly drawn) [NCR169C17–38C12,17/S-20W^7-Aza I] (H-KSKKPLFKIWKSVENVSVL[ξTrp(7-aza)]YK-NH2; N-terminus assumed) | 6.3 (≈ 17.1 µg/mL) | 6.3 (≈ 17.1 µg/mL) | – | – | 6.3 (≈ 17.1 µg/mL) | – | 6.3 (≈ 17.1 µg/mL) | 6.3 | 3.1 (≈ 8.4 µg/mL) | – | 6.3 (≈ 17.1 µg/mL) | – | – | 25 (≈ 67.7 µg/mL) | 25 (≈ 67.7 µg/mL)

From PMC9917201, “Enhanced Antibacterial Activity of Substituted Derivatives of NCR169C Peptide” (International Journal of Molecular Sciences, 2023)
